The values below come from patent publication US9187471B2, “Pyrido [4,3-b] indole and pyrido [3,4-b] indole derivatives and methods of use” (Medivation Technologies, Inc., priority 2010, dated 2015).

Test [1] deals with T1, human recombinant serotonin (5-Hydroxytryptamine) 5-HT2C receptor (Homo sapiens, UniProt P28335).
T1 construct: expressed in transfected cells; host or cells: CHO-K1
T1 sequence (P28335 33-458): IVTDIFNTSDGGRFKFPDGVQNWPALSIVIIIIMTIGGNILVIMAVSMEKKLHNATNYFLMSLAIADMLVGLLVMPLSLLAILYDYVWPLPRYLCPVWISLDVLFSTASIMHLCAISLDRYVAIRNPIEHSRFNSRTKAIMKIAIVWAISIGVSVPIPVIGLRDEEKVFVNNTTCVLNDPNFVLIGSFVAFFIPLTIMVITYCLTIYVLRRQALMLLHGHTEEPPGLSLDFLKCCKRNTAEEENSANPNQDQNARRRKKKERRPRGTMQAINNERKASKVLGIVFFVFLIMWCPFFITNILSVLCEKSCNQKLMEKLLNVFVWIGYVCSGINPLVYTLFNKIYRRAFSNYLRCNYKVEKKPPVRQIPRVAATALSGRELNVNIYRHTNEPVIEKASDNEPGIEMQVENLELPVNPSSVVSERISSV
Kind of test: Serotonin 5-HT2C radioligand binding ([3H]Mesulergine). Conditions: compound at 0.1 μM; read-out: Inhibition of ligand binding, Serotonin 5-HT2C (percent inhibition of specific binding). The method, then: Compounds of the invention were incubated with 1 nM [^3H]Mesulergine for 60 min at 25° C. Non-specific binding was estimated in the presence of 1 μM Mianserin. Receptor proteins were filtered and washed, the filters were then counted to determine [^3H]Mesulergine specifically bound.

Test [2] has as its target T2, human recombinant serotonin (5-Hydroxytryptamine) 5-HT7 receptor (Homo sapiens, UniProt P34969).
T2 construct: expressed in transfected cells; host or cells: CHO
Kind of test: Serotonin 5-HT7 radioligand binding ([3H]LSD). As to conditions: compound at 0.1 μM; read-out: Inhibition of ligand binding, Serotonin 5-HT7 (percent inhibition of specific binding). The protocol: Lysergic acid diethylamide (LSD) for 120 min. at 25° C. […] Receptor proteins were filtered and washed, the filters were then counted to determine [^3H]LSD specifically bound.

Test [3] concerns the target T3, human recombinant serotonin (5-Hydroxytryptamine) 5-HT5A receptor (Homo sapiens, UniProt P47898).
T3 construct: expressed in transfected cells; host or cells: CHO-K1
Kind of test: Serotonin 5-HT5A radioligand binding ([3H]LSD). Conditions: compound at 0.1 μM; read-out: Inhibition of ligand binding, Serotonin 5-HT5A (percent inhibition of specific binding). The protocol: Compounds of the invention were incubated with 1.7 nM [^3H]Lysergic acid diethylamide (LSD) for 60 min at 37° C. […] Receptor proteins were filtered and washed, the filters were counted to determine [^3H]LSD specifically bound.

Test [4] has as its target T4, rat adrenergic α1A receptor (Rattus norvegicus, UniProt P43140).
T4 construct: rat adrenergic α1A receptor obtained from Wistar Rat submaxillary glands; from tissue; host or cells: Wistar rat submaxillary glands
T4 sequence (P43140 1-466): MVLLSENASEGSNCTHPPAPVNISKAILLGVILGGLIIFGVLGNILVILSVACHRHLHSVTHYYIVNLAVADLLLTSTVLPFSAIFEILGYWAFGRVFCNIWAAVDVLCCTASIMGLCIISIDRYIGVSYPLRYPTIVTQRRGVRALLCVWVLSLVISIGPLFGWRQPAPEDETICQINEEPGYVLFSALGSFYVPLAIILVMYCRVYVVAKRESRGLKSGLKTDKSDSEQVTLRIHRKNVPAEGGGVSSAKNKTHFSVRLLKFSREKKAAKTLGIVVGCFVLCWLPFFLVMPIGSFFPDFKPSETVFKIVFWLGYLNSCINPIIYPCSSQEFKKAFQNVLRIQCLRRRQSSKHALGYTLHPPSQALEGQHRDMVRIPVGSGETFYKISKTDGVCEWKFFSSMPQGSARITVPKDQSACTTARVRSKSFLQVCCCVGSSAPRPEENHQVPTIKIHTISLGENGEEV
Kind of test: Adrenergic α1A radioligand binding ([3H]Prazosin). As to conditions: read-out: Adrenergic (0.1 μM) a1A, percent inhibition of specific binding; compound at 0.1 μM; 0.25 nM [3H]Prazosin. In a few lines: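 Wistar rat submaxillary gland receptor in 50 mM Tris-HCl pH 7.4 with 0.5 mM EDTA, incubated with compound and 0.25 nM [3H]Prazosin for 60 min at 25 °C.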

Test [5] addresses T5, human recombinant adrenergic α2C receptor (Homo sapiens, UniProt P18825).
T5 construct: expressed in transfected cells; host or cells: insect Sf9 cells
T5 sequence (P18825 1-462): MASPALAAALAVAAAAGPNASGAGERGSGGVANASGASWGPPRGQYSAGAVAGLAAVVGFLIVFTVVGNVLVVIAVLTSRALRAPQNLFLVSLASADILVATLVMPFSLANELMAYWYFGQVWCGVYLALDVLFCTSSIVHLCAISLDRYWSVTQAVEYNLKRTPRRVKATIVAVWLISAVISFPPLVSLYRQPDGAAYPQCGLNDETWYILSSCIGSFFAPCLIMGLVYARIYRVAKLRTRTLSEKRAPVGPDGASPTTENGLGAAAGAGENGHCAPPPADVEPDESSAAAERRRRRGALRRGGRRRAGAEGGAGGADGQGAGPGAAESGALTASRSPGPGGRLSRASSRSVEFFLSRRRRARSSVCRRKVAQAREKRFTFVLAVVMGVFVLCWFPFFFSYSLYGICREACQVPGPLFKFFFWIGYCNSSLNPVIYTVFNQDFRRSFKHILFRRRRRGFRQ
As to the kind of experiment: Adrenergic α2C radioligand binding ([3H]MK-912). Conditions: read-out: Adrenergic (0.1 μM) a2C, percent inhibition of specific binding; compound at 0.1 μM; 1 nM [3H]MK-912. In outline:
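Membranes from Sf9 cells expressing the human receptor, in 50 mM Tris-HCl pH 7.4 with 12.5 mM MgCl2 and 2 mM EDTA, incubated with compound and 1 nM [3H]MK-912 for 60 min at 25 °C. Non-specific binding defined with 10 μM WB-4101. Filter-bound radioactivity counted; percent inhibition of specific binding reported.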

By inhibition is commonly meant the relative decrease from the control value, in per cent.

Molecules are shown by their SMILES.

T3 sequence (P47898 whole entry): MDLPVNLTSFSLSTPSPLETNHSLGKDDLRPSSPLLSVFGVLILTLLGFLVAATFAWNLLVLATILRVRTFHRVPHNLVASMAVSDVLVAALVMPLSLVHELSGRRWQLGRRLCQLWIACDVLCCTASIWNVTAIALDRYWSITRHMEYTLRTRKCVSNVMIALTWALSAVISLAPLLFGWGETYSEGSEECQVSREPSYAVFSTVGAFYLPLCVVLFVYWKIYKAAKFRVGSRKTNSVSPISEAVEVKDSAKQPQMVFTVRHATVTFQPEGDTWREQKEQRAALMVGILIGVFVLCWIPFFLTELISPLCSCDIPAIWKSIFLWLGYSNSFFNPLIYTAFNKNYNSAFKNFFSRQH
T2 sequence (P34969 whole entry): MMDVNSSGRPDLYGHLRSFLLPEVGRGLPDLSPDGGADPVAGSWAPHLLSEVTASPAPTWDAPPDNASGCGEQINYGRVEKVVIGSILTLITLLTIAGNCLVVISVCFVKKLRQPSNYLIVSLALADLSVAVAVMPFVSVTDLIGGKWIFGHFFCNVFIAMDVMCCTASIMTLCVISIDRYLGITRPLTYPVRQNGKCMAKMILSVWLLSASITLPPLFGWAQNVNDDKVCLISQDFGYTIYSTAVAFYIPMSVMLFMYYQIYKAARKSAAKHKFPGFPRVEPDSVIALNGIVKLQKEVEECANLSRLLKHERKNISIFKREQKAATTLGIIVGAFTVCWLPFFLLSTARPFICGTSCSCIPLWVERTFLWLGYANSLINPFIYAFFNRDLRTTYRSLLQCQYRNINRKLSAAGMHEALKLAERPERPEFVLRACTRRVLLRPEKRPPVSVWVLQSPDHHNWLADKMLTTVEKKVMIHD

In the case of `Cc1csc(-c2cccc(-n3c4c(c5cc(C)ccc53)CN(C)CC4)c2)c1` [Compound No. 63, 2,8-dimethyl-5-(3-(4-methylthiophen-2-yl)phenyl)-2,3,4,5-tetrahydro-1H-pyrido[4,3-b]indole], the inhibition at 0.1 µM in test [1] was 77%; in test [2], 25%; in test [3], 25%; in test [4], -8%; in test [5] it was 10%.

Regarding `Cc1cc(C)c2c(c1)c1c(n2-c2ccc3ncccc3c2)CCN(C)C1` [Compound 48], the inhibition at 0.1 µM in test [1] is 47%; in test [2], 23%; in test [3], 10%; in test [4] it was -6%; in test [5] it was -7%.

`Cc1ccc2c(c1)c1c(n2-c2cccc(-c3ccc4c(ccn4C)c3)c2)CCN(C)C1` [Compound 53, 2,8-dimethyl-5-(3-(1-methyl-1H-indol-5-yl)phenyl)-2,3,4,5-tetrahydro-1H-pyrido[4,3-b]indole]: the inhibition at 0.1 µM in test [1] was 47%; in test [2], 4%; in test [3], 11%; in test [4], -11%; in test [5], 7%.

Consider `Cc1ccc2c(c1)c1c(n2-c2ccccc2-c2cnc(N(C)C)nc2)CCN(C)C1` [Compound 31], for which the inhibition at 0.1 µM in test [1] was 15%; in test [2] it was -2%; in test [3] it was 8%; in test [4] it was 51%; in test [5], 12%.

Regarding `Cc1ccc2c(c1)c1c(n2-c2cccc(-c3ccc(C)nc3)c2)CCN(C)C1` [Compound 60, 2,8-dimethyl-5-(3-(6-methylpyridin-3-yl)phenyl)-2,3,4,5-tetrahydro-1H-pyrido[4,3-b]indole], the inhibition at 0.1 µM in test [1] was 53%; in test [2], 41%; in test [3] it was 62%; in test [4], -2%; in test [5], 21%.

Consider `CNC(=O)c1cccc(-c2cscc2-n2c3c(c4cc(C)ccc42)CN(C)CC3)c1` [Compound No. 154], for which the inhibition at 0.1 µM in test [1] was determined as 67%; in test [2] it was 73%; in test [3], 85%; in test [4], 28%; in test [5], 3%.

As to `Cc1ccc2c(c1)c1c(n2-c2ccc3c(c2)CCN(C=O)C3)CCN(C)C1` [Compound No. 77, 6-(2,8-dimethyl-1,2,3,4-tetrahydro-pyrido[4,3-b]indol-5-yl)-3,4-dihydro-1H-isoquinoline-2-carbaldehyde], the inhibition at 0.1 µM is 51% in test [1]; 35% in test [2]; 21% in test [3]; 20% in test [4]; 0% in test [5].

`Cc1ccc2c(c1)c1c(n2-c2cscc2-c2ccc(F)nc2)CCN(C)C1` [Compound 35]: the inhibition at 0.1 µM is 74% in test [1]; 93% in test [2]; 66% in test [3]; 78% in test [4]; 47% in test [5].

`CNC(=O)c1ccc(-c2cccc(-n3c4c(c5cc(C)ccc53)CN(C)CC4)c2)cn1` [Compound No. 75, 5-(3-(2,8-dimethyl-3,4-dihydro-1H-pyrido[4,3-b]indol-5(2H)-yl)phenyl)-N-methylpicolinamide]: the inhibition at 0.1 µM in test [1] was 25%; in test [2], 21%; in test [3] it was 29%; in test [4], 21%; in test [5], -3%.

In the case of `Cc1ccc2c(c1)c1c(n2-c2cccc(-c3ccc(S(N)(=O)=O)cc3)c2)CCN(C)C1` [Compound No. 158, 3′-(2,8-dimethyl-3,4-dihydro-1H-pyrido[4,3-b]indol-5(2H)-yl)biphenyl-4-sulfonamide], the inhibition at 0.1 µM came to 47% in test [1]; 26% in test [2]; 62% in test [3]; 4% in test [4]; 0% in test [5].

For `CNC(=O)c1cccc(-c2ccc(-n3c4c(c5cc(C)ccc53)CN(C)CC4)nc2)c1` [Compound No. 143, 3-(6-(2,8-dimethyl-3,4-dihydro-1H-pyrido[4,3-b]indol-5(2H)-yl)pyridin-3-yl)-N-methylbenzamide], the inhibition at 0.1 µM in test [1] amounted to 44%; in test [2], 11%; in test [3], 17%; in test [4], 32%; in test [5] it was 8%.

`Cc1ccc2c(c1)c1c(n2-c2cscc2-c2cncc3ccccc23)CCN(C)C1` [Compound 34]: the inhibition at 0.1 µM stood at 54% in test [1]; 43% in test [2]; 56% in test [3]; 4% in test [4]; 5% in test [5].

In the case of `Cc1ccc2c(c1)c1c(n2-c2ccc(-c3ccc4c(ccn4C)c3)cn2)CCN(C)C1` [Compound No. 136, 2,8-dimethyl-5-(5-(1-methyl-1H-indol-5-yl)pyridin-2-yl)-2,3,4,5-tetrahydro-1H-pyrido[4,3-b]indole], the inhibition at 0.1 µM in test [1] was found to be 101%; in test [2], 26%; in test [3] it was 50%; in test [4], 20%; in test [5] it was 24%.

As for `Cc1ccc2c(c1)c1c(n2-c2ccccc2-c2ccc(C)nc2)CCN(C)C1` [Compound 59, 2,8-dimethyl-5-(2-(6-methylpyridin-3-yl)phenyl)-2,3,4,5-tetrahydro-1H-pyrido[4,3-b]indole], the inhibition at 0.1 µM was 46% in test [1]; 48% in test [2]; 31% in test [3]; 42% in test [4]; 25% in test [5].

With `Cc1cc(C)c2c(c1)c1c(n2-c2cccc3ncccc23)CCN(C)C1` [Compound 47], the inhibition at 0.1 µM was 32% in test [1]; 36% in test [2]; 29% in test [3]; -1% in test [4]; 11% in test [5].

Regarding `Cc1csc(-c2ccccc2-n2c3c(c4cc(C)ccc42)CN(C)CC3)c1` [Compound 36], the inhibition at 0.1 µM in test [1] was 83%; in test [2], 51%; in test [3] it was 50%; in test [4], -6%; in test [5] it was 67%.
